How the values were obtained:
Format in all cases: functional
SNB-75 = test: Growth inhibition of human SNB75 cells at 10^-5 M incubated for 48 hrs by sulforhodamine B assay; conditions: SNB-75, 48 h, read-out: GI
SW-620 = test: Growth inhibition of human SW620 cells at 10^-5 M incubated for 48 hrs by sulforhodamine B assay; conditions: SW-620, 48 h, read-out: GI
SK-OV-3 = test: Growth inhibition of human SKOV3 cells at 10^-5 M incubated for 48 hrs by sulforhodamine B assay; conditions: SK-OV-3, 48 h, read-out: GI
OVCAR-8 = test: Growth inhibition of human OVCAR8 cells at 10^-5 M incubated for 48 hrs by sulforhodamine B assay; conditions: OVCAR-8, 48 h, read-out: GI
NCI-H226 = test: Growth inhibition of human NCI-H226 cells at 10^-5 M incubated for 48 hrs by sulforhodamine B assay; conditions: NCI-H226, 48 h, read-out: GI
M14 = test: Growth inhibition of human M14 cells at 10^-5 M incubated for 48 hrs by sulforhodamine B assay; conditions: M14, 48 h, read-out: GI
TK-10 = test: Growth inhibition of human TK10 cells at 10^-5 M incubated for 48 hrs by sulforhodamine B assay; conditions: TK-10, 48 h, read-out: GI
KM12 = test: Growth inhibition of human KM12 cells at 10^-5 M incubated for 48 hrs by sulforhodamine B assay; conditions: KM12, 48 h, read-out: GI
COLO 205 = test: Growth inhibition of human COLO205 cells at 10^-5 M incubated for 48 hrs by sulforhodamine B assay; conditions: COLO 205, 48 h, read-out: GI
HCT-116 = test: Growth inhibition of human HCT116 cells at 10^-5 M incubated for 48 hrs by sulforhodamine B assay; conditions: HCT-116, 48 h, read-out: GI
MDA-MB-435 = test: Growth inhibition of human MDA-MB-435 cells at 10^-5 M incubated for 48 hrs by sulforhodamine B assay; conditions: MDA-MB-435, 48 h, read-out: GI
LOX IMVI = test: Growth inhibition of human LOXIMVI cells at 10^-5 M incubated for 48 hrs by sulforhodamine B assay; conditions: read-out: GI
UACC-257 = test: Growth inhibition of human UACC257 cells at 10^-5 M incubated for 48 hrs by sulforhodamine B assay; conditions: UACC-257, 48 h, read-out: GI
T47D = test: Growth inhibition of human T47D cells at 10^-5 M incubated for 48 hrs by sulforhodamine B assay; conditions: read-out: GI
Hs-578T = test: Growth inhibition of human Hs 578T cells at 10^-5 M incubated for 48 hrs by sulforhodamine B assay; conditions: read-out: GI
HOP-92 = test: Growth inhibition of human HOP92 cells at 10^-5 M incubated for 48 hrs by sulforhodamine B assay; conditions: HOP-92, 48 h, read-out: GI
HL-60(TB) = test: Growth inhibition of human HL-60(TB) cells at 10^-5 M incubated for 48 hrs by sulforhodamine B assay; conditions: HL-60, 48 h, read-out: GI
HCC 2998 = test: Growth inhibition of human HCC2998 cells at 10^-5 M incubated for 48 hrs by sulforhodamine B assay; conditions: HCC 2998, 48 h, read-out: GI
CAKI-1 = test: Growth inhibition of human Caki1 cells at 10^-5 M incubated for 48 hrs by sulforhodamine B assay; conditions: CAKI-1, 48 h, read-out: GI
MOLT-4 = test: Growth inhibition of human MOLT4 cells at 10^-5 M incubated for 48 hrs by sulforhodamine B assay; conditions: MOLT-4, 48 h, read-out: GI
UACC-62 = test: Growth inhibition of human UACC62 cells at 10^-5 M incubated for 48 hrs by sulforhodamine B assay; conditions: UACC-62, 48 h, read-out: GI
RXF 393 = test: Growth inhibition of human RXF393 cells at 10^-5 M incubated for 48 hrs by sulforhodamine B assay; conditions: RXF 393, 48 h, read-out: GI
OVCAR-5 = test: Growth inhibition of human OVCAR5 cells at 10^-5 M incubated for 48 hrs by sulforhodamine B assay; conditions: OVCAR-5, 48 h, read-out: GI
U-251 = test: Growth inhibition of human U251 cells at 10^-5 M incubated for 48 hrs by sulforhodamine B assay; conditions: U-251, 48 h, read-out: GI
MDA-MB-231 = test: Growth inhibition of human MDA-MB-231 cells at 10^-5 M incubated for 48 hrs by sulforhodamine B assay; conditions: MDA-MB-231, 48 h, read-out: GI
HOP-62 = test: Growth inhibition of human HOP62 cells at 10^-5 M incubated for 48 hrs by sulforhodamine B assay; conditions: HOP-62, 48 h, read-out: GI
HCT-15 = test: Growth inhibition of human HCT15 cells at 10^-5 M incubated for 48 hrs by sulforhodamine B assay; conditions: HCT-15, 48 h, read-out: GI
SF-539 = test: Growth inhibition of human SF539 cells at 10^-5 M incubated for 48 hrs by sulforhodamine B assay; conditions: SF-539, 48 h, read-out: GI
DU-145 = test: Growth inhibition of human DU145 cells at 10^-5 M incubated for 48 hrs by sulforhodamine B assay; conditions: DU-145, 48 h, read-out: GI
SK-MEL-5 = test: Growth inhibition of human SK-MEL-5 cells at 10^-5 M incubated for 48 hrs by sulforhodamine B assay; conditions: SK-MEL-5, 48 h, read-out: GI
SF-295 = test: Growth inhibition of human SF295 cells at 10^-5 M incubated for 48 hrs by sulforhodamine B assay; conditions: SF-295, 48 h, read-out: GI
SK-MEL-28 = test: Growth inhibition of human SK-MEL-28 cells at 10^-5 M incubated for 48 hrs by sulforhodamine B assay; conditions: SK-MEL-28, 48 h, read-out: GI
IGROV-1 = test: Growth inhibition of human IGROV1 cells at 10^-5 M incubated for 48 hrs by sulforhodamine B assay; conditions: IGROV-1, 48 h, read-out: GI
EKVX = test: Growth inhibition of human EKVX cells at 10^-5 M incubated for 48 hrs by sulforhodamine B assay; conditions: read-out: GI
SR = test: Growth inhibition of human SR cells at 10^-5 M incubated for 48 hrs by sulforhodamine B assay; conditions: read-out: GI
NCI-H460 = test: Growth inhibition of human NCI-H460 cells at 10^-5 M incubated for 48 hrs by sulforhodamine B assay; conditions: NCI-H460, 48 h, read-out: GI
786-0 = test: Growth inhibition of human 786-0 cells at 10^-5 M incubated for 48 hrs by sulforhodamine B assay; conditions: 786-0, 48 h, read-out: GI
A549 = test: Growth inhibition of human A549/ATCC cells at 10^-5 M incubated for 48 hrs by sulforhodamine B assay; conditions: A549, 48 h, read-out: GI

In the case of O=[N+]([O-])c1cccc(C2c3sc4ccc(Cl)cc4c3N=C3NN=CN32)c1 (stereo unspecified), the inhibition of growth at 10 µM (SNB-75) is reported as -4.8%, the inhibition of growth at 10 µM (SW-620) is reported as 5.16% and the inhibition of growth at 10 µM (SK-OV-3) is reported as -4.54%. For the same molecule, the inhibition of growth at 10 µM (OVCAR-8) was 1.42%, the inhibition of growth at 10 µM (NCI-H226) was 21.7% and the inhibition of growth at 10 µM (M14) was -2.02%. For the same molecule, the inhibition of growth at 10 µM (TK-10) was 39%, the inhibition of growth at 10 µM (KM12) was 3.7% and the inhibition of growth at 10 µM (COLO 205) was -6.88%. For the same molecule, the inhibition of growth at 10 µM (HCT-116) was 3.22%, the inhibition of growth at 10 µM (MDA-MB-435) was -17.5% and the inhibition of growth at 10 µM (LOX IMVI) was 6.72%. The inhibition of growth at 10 µM (UACC-257) was -3.45%, the inhibition of growth at 10 µM (T47D) was -3.72% and the inhibition of growth at 10 µM (Hs-578T) was -18.1%. The inhibition of growth at 10 µM (HOP-92) was -7.25%, the inhibition of growth at 10 µM (HL-60(TB)) was -6.74% and the inhibition of growth at 10 µM (HCC 2998) was -6.88%. It also gave an inhibition of growth at 10 µM (CAKI-1) of -3.12%, an inhibition of growth at 10 µM (MOLT-4) of 0.47% and an inhibition of growth at 10 µM (UACC-62) of 3.57%. For the same molecule, the inhibition of growth at 10 µM (RXF 393) was 1.71%, the inhibition of growth at 10 µM (OVCAR-5) was -1.09% and the inhibition of growth at 10 µM (U-251) was -0.13%. The inhibition of growth at 10 µM (MDA-MB-231) was 5.59%, the inhibition of growth at 10 µM (HOP-62) was 10.8% and the inhibition of growth at 10 µM (HCT-15) was -1.1%. The inhibition of growth at 10 µM (SF-539) was 6.94%, the inhibition of growth at 10 µM (DU-145) was 28.2% and the inhibition of growth at 10 µM (SK-MEL-5) was 5.85%. For the same molecule, the inhibition of growth at 10 µM (SF-295) was -3.63%, the inhibition of growth at 10 µM (SK-MEL-28) was -17.9% and the inhibition of growth at 10 µM (IGROV-1) was -11.9%. The inhibition of growth at 10 µM (EKVX) was 15%, the inhibition of growth at 10 µM (SR) was 4.93% and the inhibition of growth at 10 µM (NCI-H460) was 2.77%. For the same molecule, the inhibition of growth at 10 µM (786-0) was 5.64% and the inhibition of growth at 10 µM (A549) was -0.61%.

Work on NNC1=Nc2c(sc3ccc(Cl)cc23)C(c2cccc([N+](=O)[O-])c2)N1 (stereo unspecified) yielded an inhibition of growth at 10 µM (SNB-75) of 10.7%, an inhibition of growth at 10 µM (SW-620) of -6.43% and an inhibition of growth at 10 µM (SK-OV-3) of 5.88%. The inhibition of growth at 10 µM (OVCAR-8) was -1.52%, the inhibition of growth at 10 µM (NCI-H226) was 18.4% and the inhibition of growth at 10 µM (M14) was -4.43%. For the same molecule, the inhibition of growth at 10 µM (TK-10) was -18.2%, the inhibition of growth at 10 µM (KM12) was 1.7% and the inhibition of growth at 10 µM (COLO 205) was -1.26%. For the same molecule, the inhibition of growth at 10 µM (HCT-116) was -0.35%, the inhibition of growth at 10 µM (MDA-MB-435) was -7.56% and the inhibition of growth at 10 µM (LOX IMVI) was 2.22%. The inhibition of growth at 10 µM (UACC-257) was -0.19%, the inhibition of growth at 10 µM (T47D) was 12.8% and the inhibition of growth at 10 µM (Hs-578T) was -2.75%. For the same molecule, the inhibition of growth at 10 µM (HOP-92) was -12.8%, the inhibition of growth at 10 µM (HL-60(TB)) was 2.98% and the inhibition of growth at 10 µM (HCC 2998) was -1.26%. For the same molecule, the inhibition of growth at 10 µM (CAKI-1) was 18.5%, the inhibition of growth at 10 µM (MOLT-4) was 13% and the inhibition of growth at 10 µM (UACC-62) was 4.25%. For the same molecule, the inhibition of growth at 10 µM (RXF 393) was -16.8%, the inhibition of growth at 10 µM (OVCAR-5) was -5.19% and the inhibition of growth at 10 µM (U-251) was -3.56%. For the same molecule, the inhibition of growth at 10 µM (MDA-MB-231) was 16.3%, the inhibition of growth at 10 µM (HOP-62) was 6.98% and the inhibition of growth at 10 µM (HCT-15) was -5.02%. The inhibition of growth at 10 µM (SF-539) was -1.12%, the inhibition of growth at 10 µM (DU-145) was -9.18% and the inhibition of growth at 10 µM (SK-MEL-5) was 3.86%. For the same molecule, the inhibition of growth at 10 µM (SF-295) was -3.08%, the inhibition of growth at 10 µM (SK-MEL-28) was -26.6% and the inhibition of growth at 10 µM (IGROV-1) was 23.8%. It also gave an inhibition of growth at 10 µM (EKVX) of 16.9%, an inhibition of growth at 10 µM (SR) of 1.98% and an inhibition of growth at 10 µM (NCI-H460) of 1.16%. It also gave an inhibition of growth at 10 µM (786-0) of -3.52% and an inhibition of growth at 10 µM (A549) of -4.45%.

From ChEMBL document CHEMBL4414672, “Synthesis of certain benzothieno[3,2-d]pyrimidine derivatives as a selective SIRT2 inhibitors” (Eur J Med Chem, 2020)
